In the supplement of paper PMC11061612:

What was measured:
Experiment in all cases: combination Emax (second highest fraction inhibited in the dose matrix, 72 h); higher = more inhibition; extreme values may be limits of the assay
RPMI-7951 (Melanoma) = test system: RPMI-7951 (Melanoma)
In short: (§1)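 After 24 hours at 37°C and 5% CO2 in 1536-well plates, cells in DMEM/F12 or RPMI plus 10% FBS received two-drug dose matrices for 72 hours. Viability came from CellTiter-Glo 2.0 luminescence and was scaled as inhibition, anchored at 0 by vehicle wells and at 1 by blank wells. Combination Emax is taken as the second-highest inhibition in the matrix, and Bliss excess as the observed combination effect less EA + EB − EA·EB, with EA and EB the single-agent effects.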

[1] = test system: SCC-3 (B-Cell Non-Hodgkin's Lymphoma)
In short: as §1

EW-13 (Ewing's Sarcoma) = test system: EW-13 (Ewing's Sarcoma)
In short: as §1

GOTO (Neuroblastoma) = test system: GOTO (Neuroblastoma)
In short: as §1

[2] = test system: KLE (Endometrial Carcinoma)
In short: as §1

[3] = test system: EBC-1 (Squamous Cell Lung Carcinoma)
In short: as §1

[4] = test system: OVISE (Ovarian Carcinoma)
In short: as §1

[5] = test system: KP-2 (Pancreatic Carcinoma)
In short: as §1

[6] = test system: SCC-9 (Oral Cavity Carcinoma)
In short: as §1

[7] = test system: LC4-1 (B-Lymphoblastic Leukemia)
In short: as §1

[8] = test system: TGBC11TKB (Gastric Carcinoma)
In short: as §1

[9] = test system: KYSE-50 (Esophageal Squamous Cell Carcinoma)
In short: as §1

[10] = test system: MFE-319 (Endometrial Carcinoma)
In short: as §1

IMR-5 (Neuroblastoma) = test system: IMR-5 (Neuroblastoma)
In short: as §1

[11] = test system: NCI-N87 (Gastric Carcinoma)
In short: as §1

[12] = test system: KU-19-19 (Bladder Carcinoma)
In short: as §1

[13] = test system: KINGS-1 (Low Grade Glioma)
In short: as §1

[14] = test system: LOU-NH91 (Squamous Cell Lung Carcinoma)
In short: as §1

NH-12 (Neuroblastoma) = test system: NH-12 (Neuroblastoma)
In short: as §1

| Structure (SMILES) | combination Emax (RPMI-7951 (Melanoma)) | combination Emax [1] | combination Emax (EW-13 (Ewing's Sarcoma)) | combination Emax (GOTO (Neuroblastoma)) | combination Emax [2] | combination Emax [3] | combination Emax [4] | combination Emax [5] | combination Emax [6] | combination Emax [7] | combination Emax [8] | combination Emax [9] | combination Emax [10] | combination Emax (IMR-5 (Neuroblastoma)) | combination Emax [11] | combination Emax [12] | combination Emax [13] | combination Emax [14] | combination Emax (NH-12 (Neuroblastoma)) |
| --- | --- | --- | --- | --- | --- | --- | --- | --- | --- | --- | --- | --- | --- | --- | --- | --- | --- | --- | --- |
| Cc1cc2ncnn2cc1Nc1ncc2c(n1)n(C1CCOCC1)c(=O)n2C [AZD7648] + CCN(CCO)CCCOc1ccc2c(Nc3cc(CC(=O)Nc4cccc(F)c4)[nH]n3)ncnc2c1 [AZD2811] (first compound max 10 µM, 7x7, partner max 1 µM) | 0.476 | 0.338 | 0.291 | 0.491 | 0.382 | 0.18 | 0.308 | 0.0095 | 0.342 | 0.839 | 0.327 | 0.341 | 0.278 | 0.98 | 0.44 | 0.489 | 0.353 | 0.37 | 0.667 |
| CN(C)CCCOc1ccc(-c2ccc3ncc4c(c3c2)n(C2CCOCC2)c(=O)n4C)cn1 [AZD0156] + C=CCn1c(=O)c2cnc(Nc3ccc(N4CCN(C)CC4)cc3)nc2n1-c1cccc(C(C)(C)O)n1 [AZD1775] (first compound max 1 µM, partner max 1 µM) | 0.687 | 0.941 | 0.444 | 0.865 | 0.531 | 0.165 | 0.7 | 0.147 | 0.168 | 0.916 | 0.895 | 0.27 | 0.63 | 0.741 | 0.726 | 0.751 | 0.293 | 0.371 | 0.877 |
| Cc1cc2ncnn2cc1Nc1ncc2c(n1)n(C1CCOCC1)c(=O)n2C [AZD7648] + O=C(c1cc(Cc2n[nH]c(=O)c3ccccc23)ccc1F)N1CCN(C(=O)C2CC2)CC1 [Olaparib] (first compound max 10 µM, 7x7, partner max 10 µM) | 0.303 | 0.435 | 0.564 | 0.525 | 0.419 | 0.202 | 0.19 | 0.12 | 0.0663 | 0.442 | 0.269 | 0.0839 | 0.118 | 0.475 | 0.301 | 0.251 | 0.189 | 0.186 | 0.317 |
| CCN(CCO)CCCOc1ccc2c(Nc3cc(CC(=O)Nc4cccc(F)c4)[nH]n3)ncnc2c1 [AZD2811] + O=C(c1cc(Cc2n[nH]c(=O)c3ccccc23)ccc1F)N1CCN(C(=O)C2CC2)CC1 [Olaparib] (first compound max 1 µM, 7x7, partner max 10 µM) | 0.328 | 0.488 | 0.701 | 0.654 | 0.16 | 0.216 | 0.272 | 0.0558 | 0.19 | 0.854 | 0.408 | 0.282 | 0.245 | 0.962 | 0.293 | 0.381 | 0.241 | 0.332 | 0.659 |
| C=CCn1c(=O)c2cnc(Nc3ccc(N4CCN(C)CC4)cc3)nc2n1-c1cccc(C(C)(C)O)n1 [AZD1775] + C[C@@H]1COCCN1C2=NC(=NC(=C2)C3(CC3)[S@](=N)(=O)C)C4=C5C=CNC5=NC=C4 [AZD6738] (first compound max 1 µM, partner max 10 µM) | 0.951 | 1 | 0.653 | 0.888 | 0.59 | 0.616 | 0.777 | 0.297 | 0.434 | 0.952 | 0.922 | 0.694 | 0.825 | 0.986 | 0.806 | 0.811 | 0.533 | 0.54 | 0.937 |
| COc1cccc(OCCCN)c1-c1cc(Nc2cnc(C#N)cn2)n[nH]1 [Prexasertib] + C=CCn1c(=O)c2cnc(Nc3ccc(N4CCN(C)CC4)cc3)nc2n1-c1cccc(C(C)(C)O)n1 [AZD1775] (first compound max 1 µM, partner max 1 µM) | 0.991 | 1 | 0.611 | 0.905 | 0.674 | 0.666 | 0.763 | 0.613 | 0.482 | 0.983 | 0.991 | 0.852 | 0.807 | 1 | 0.797 | 0.858 | 0.638 | 0.716 | 0.944 |
| CN(C)CCCOc1ccc(-c2ccc3ncc4c(c3c2)n(C2CCOCC2)c(=O)n4C)cn1 [AZD0156] + CCN(CCO)CCCOc1ccc2c(Nc3cc(CC(=O)Nc4cccc(F)c4)[nH]n3)ncnc2c1 [AZD2811] (first compound max 1 µM, 7x7, partner max 1 µM) | 0.257 | 0.445 | 0.332 | 0.649 | 0.334 | 0.171 | 0.113 | 0.0724 | 0.186 | 0.808 | 0.325 | 0.204 | 0.147 | 0.967 | 0.253 | 0.349 | 0.167 | 0.208 | 0.674 |
